Measurements: patent US7230157B1, “Chemical inducible promoter used to obtain transgenic plants with a silent marker and organisms and cells and methods of using same for screening for mutations” (The Rockefeller University, priority 1998, dated 2007)

How the values were obtained:
[1] = system: tobacco leaf discs; assay: DEX-dependent regeneration and Luc activity of tobacco leaf discs transfected with pTA7002G/ipt/luc; assay type: cell-based, Nicotiana tabacum; conditions: for Percentage of LUC^+ regenerants / Total number of regenerants per 28 explants: Tobacco
Description: Nicotiana tabacum seeds cultivar SR1 were surface sterilized in 30% commercial bleach containing 0.02% Tween 20 for 10 minutes and washed five times with sterile water. Plants were grown in a tissue culture room at 22° C. at 16 hour light and 8 hour dark cycles. Tobacco transformation was essentially as described by Horsch et al. (1985) and Klee et al. (1987). Leaf discs were prepared from young leaves of four week old plants and the explants were cultured for two days on MB medium (MS salts, B5 vitamins, 20 g/L sucrose, 20 mg/L acetosyringone, 0.2% phytagel, pH 5.7). […] After 20 to 40 days of culturing, regenerated shoots were excised from explants and cultured on MS medium containing IAA to induce root regeneration.
(§1) The explants were transferred to fresh medium every two weeks to maintain constant culture conditions.
(§2) The transformation cassette pTA7002G/ipt/luc (FIG. 12) contained a luc gene under the control of the CaMV 35S promoter (Millar et al., 1992; Benfey and Chua, 1990). Luc activity was measured in order to estimate the number of transgenic shoots using the video imaging system described by Michelet and Chua (1996). Measurements were integrated over 5 minutes and the corresponding background was subtracted from the images (FIGS. 9A-F). Approximately 50% of the regenerants expressed the luc gene (Table 2).
To further characterize the transformation system, we examined the effects of the duration of induction as well as the effects of exogenously applied phytohormones. Time course experiments were performed to determine whether the specificity of the induction of the ipt gene decreases over time due to overproduction and diffusion of cytokinin, which could trigger regeneration events in neighboring, non-transformed cells. […] No significant difference in the percentage of regenerants with detectable Luc activity was found over time. After 20 days, 46% of regenerants had detectable Luc activity and after both 30 and 40 days 53% of regenerants had detectable Luc activity. […] Similar results have been obtained with lettuce.
No significant difference in luciferase activity occurred at different auxin concentrations. At 1.0 mg/mL auxin 45% of regenerants had detectable Luc activity, at 1.5 mg/mL auxin 58% of regenerants had detectable Luc activity, and at 2.0 mg/mL auxin 47% of regenerants had detectable Luc activity.

[2] = system: lettuce leaf disks; assay: DEX-dependent regeneration and Luc activity of lettuce leaf disks transfected with pTA7002G/ipt/luc; assay type: cell-based, Lactuca sativa; conditions: DEX 10 μM
Description: Sterilized lettuce […] (Lactuca sativa var. Great Lake #118) were germinated and the seedlings were grown as described for tobacco. Transformation of lettuce leaf discs was performed as described by Curtis et al. (1996) with the exception that cytokinin was omitted from the culture media.
as §1, §2

[3] = system: tobacco leaf disks; assay: Shoot regeneration from tobacco leaf disks transfected with XVE-CKI1; assay type: cell-based; conditions: no externally applied plant hormones
Text: In addition to the GVG-ipt, pER8-CKI1 (XVE-CKI1) has been used to transfect tobacco leaf disks.

[4] = system: tobacco root cells; assay: Shoot regeneration from tobacco root cells transformed with XVE-CKI1; assay type: cell-based
Text: The XVE-CKI1 vector was also used to transform tobacco root cells. […] The explants were transferred to fresh MBC medium (with or without the inducer) every two weeks. […] The explants grown in the presence of inducer formed green callus. […] This experiment used the same number of root explants with inducer as without inducer. Since 65 calli formed with inducer and only 49 without inducer, overexpression of CKI1 may also increase the efficiency of callus formation.

[5] = system: Arabidopsis root explants; assay: Regeneration of Arabidopsis root explants transfected with XVE-CKI1; conditions: MIC medium with 5 μM 17-β-estradiol

C[C@@H]1C[C@H]2[C@@H]3CCC4=CC(=O)C=C[C@]4(C)[C@@]3(F)[C@@H](O)C[C@]2(C)[C@@]1(O)C(=O)CO [DEX, dexamethasone]
regenerants with detectable Luc activity ([1]; 10 μM DEX, after 20 days of induction, 54 regenerants): 46%
regenerants with detectable Luc activity ([1]; 10 μM DEX, after 30 days of induction): 53%
regenerants with detectable Luc activity ([1]; 10 μM DEX, after 40 days of induction): 53%
Percentage of LUC^+ regenerants ([1]; DEX 0.1 μM): 29
Total number of regenerants per 28 explants ([1]; DEX 0.1 μM): 139
Percentage of LUC^+ regenerants ([1]; DEX 1 μM): 44
Total number of regenerants per 28 explants ([1]; DEX 1 μM): 129
Percentage of LUC^+ regenerants ([1]; DEX 10 μM): 49
Percentage of LUC^+ regenerants [2]: 46
Total number of regenerants per 28 explants [2]: 198

auxin
regenerants with detectable Luc activity ([1]; 10 μM DEX, 40 days): 45%
regenerants with detectable Luc activity ([1]; 1.5 mg/mL auxin and 10 μM DEX, 40 days): 58%
regenerants with detectable Luc activity ([1]; 2.0 mg/mL auxin and 10 μM DEX, 40 days): 47%

C[C@]12CC[C@@H]3c4ccc(O)cc4CC[C@H]3[C@@H]1CC[C@@H]2O [17-β-estradiol]
time of shoot initiation after induction [3]: 25 to 35 days
time of shoot initiation after induction ([4]; 5 μM 17-β-estradiol): 40 to 50 days
white/brown calli that became green and produced shoots ([4]; MBC medium with 5 μM 17-β-estradiol): 13 out of 65
time of culture until small dark green callus appears [5]: about 10 days
time of culture until small shoots appear [5]: about 15 days
